Data: patent publication US10239873B2, “7-azaindole or 4,7-diazaindole derivatives as IKKϵ epsilon and TBK1 inhibitor and pharmaceutical composition comprising same” (GREEN CROSS CORPORATION, priority 2015, dated 2019)

Experiments:
[1] = target: T1, IKKε (Homo sapiens, UniProt Q14164); assay: ADP-Glo Kinase Assay, inhibition activity on IKKε; format: biochemical
T1 construct: purchased Promega and/or Invitrogen V4158; PR8031B; V3991 (not assigned to the two kinases)
T1 sequence (Q14164 1-716): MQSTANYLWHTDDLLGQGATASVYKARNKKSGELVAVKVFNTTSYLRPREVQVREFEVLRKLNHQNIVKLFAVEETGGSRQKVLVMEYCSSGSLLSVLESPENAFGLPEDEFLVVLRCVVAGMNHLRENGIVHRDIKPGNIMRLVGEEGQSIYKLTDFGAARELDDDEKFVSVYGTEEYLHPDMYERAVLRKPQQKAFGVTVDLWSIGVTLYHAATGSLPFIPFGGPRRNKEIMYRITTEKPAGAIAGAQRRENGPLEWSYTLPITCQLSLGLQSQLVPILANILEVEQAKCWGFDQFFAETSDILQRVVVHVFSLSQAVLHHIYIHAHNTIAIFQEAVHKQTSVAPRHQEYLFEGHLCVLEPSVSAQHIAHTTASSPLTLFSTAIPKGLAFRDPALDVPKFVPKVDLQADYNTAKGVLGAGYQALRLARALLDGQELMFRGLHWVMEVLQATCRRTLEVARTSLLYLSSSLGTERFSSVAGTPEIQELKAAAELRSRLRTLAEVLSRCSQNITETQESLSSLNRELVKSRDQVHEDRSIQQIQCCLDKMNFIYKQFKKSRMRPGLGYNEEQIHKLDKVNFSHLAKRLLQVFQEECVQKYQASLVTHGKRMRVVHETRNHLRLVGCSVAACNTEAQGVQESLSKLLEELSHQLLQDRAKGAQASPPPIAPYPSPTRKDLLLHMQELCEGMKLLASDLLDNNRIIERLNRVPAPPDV
How it was run: (§1)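 Kinase activity measured with the ADP-Glo luminescent ADP-detection kit per manufacturer's protocol, using IKKε or TBK1 kinase enzyme systems. Reaction buffer: 40 mM Tris (pH 7.5), 20 mM MgCl2, 0.1 mg/mL BSA; luminescence read on a luminometer.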

[2] = target: T2, TBK1 (Homo sapiens, UniProt Q9UHD2); assay: ADP-Glo Kinase Assay, inhibition activity on TBK1; format: biochemical
T2 construct: purchased Promega (Invitrogen is also named in the same bracket) V4158; PR8031B; V3991 (not assigned to the two kinases)
T2 sequence (Q9UHD2 1-729): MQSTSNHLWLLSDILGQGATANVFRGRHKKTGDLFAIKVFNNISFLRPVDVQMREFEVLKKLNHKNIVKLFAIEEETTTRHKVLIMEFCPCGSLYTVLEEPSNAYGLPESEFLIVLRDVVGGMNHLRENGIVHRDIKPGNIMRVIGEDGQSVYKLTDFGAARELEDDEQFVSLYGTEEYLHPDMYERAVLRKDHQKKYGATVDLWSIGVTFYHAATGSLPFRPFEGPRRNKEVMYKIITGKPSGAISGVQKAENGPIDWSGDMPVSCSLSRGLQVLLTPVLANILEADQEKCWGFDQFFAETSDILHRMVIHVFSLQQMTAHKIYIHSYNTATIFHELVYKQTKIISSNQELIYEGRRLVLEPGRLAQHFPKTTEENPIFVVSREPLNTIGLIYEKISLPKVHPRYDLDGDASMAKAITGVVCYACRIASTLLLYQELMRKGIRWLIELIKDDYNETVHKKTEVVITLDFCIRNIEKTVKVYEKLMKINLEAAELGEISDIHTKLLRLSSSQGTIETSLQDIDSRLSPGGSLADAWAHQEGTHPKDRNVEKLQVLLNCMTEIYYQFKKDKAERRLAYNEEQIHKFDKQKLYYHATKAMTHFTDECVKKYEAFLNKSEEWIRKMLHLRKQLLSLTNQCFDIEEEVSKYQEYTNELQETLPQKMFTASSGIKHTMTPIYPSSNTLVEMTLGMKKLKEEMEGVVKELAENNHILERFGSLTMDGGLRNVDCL
How it was run: as §1

## CC1C=C(c2c[nH]c3ncc(-c4ccc(C(=O)N5CCN(C)CC5)cc4)cc23)CCN1C(=O)NC1CCC1 (stereo not shown) [Example 98, N-cyclobutyl-2-methyl-4-(5-(4-(4-methylpiperazine-1-carbonyl)phenyl)-1H-pyrrolo[2,3-b]pyridin-3-yl)-5,6-dihydropyridine-1(2H)-carboxamide]
[1]
  IC50: 0.022 µM
[2]
  IC50: 0.015 µM

## CC(C)NC(=O)N1CCC(c2c[nH]c3ncc(-c4ccc(CN5CCOCC5)cc4)cc23)=CC1C (stereo not shown) [Example 90, N-isopropyl-2-methyl-4-(5-(4-(morpholinomethyl)phenyl)-1H-pyrrolo[2,3-b]pyridin-3-yl)-5,6-dihydropyridine-1(2H)-carboxamide]
[1]
  IC50: 0.0055 µM
[2]
  IC50: 0.0052 µM

## CC(C)NC(=O)N1CCC(c2c[nH]c3ncc(-c4ccc(CN5CCN(C)CC5)s4)cc23)=CC1C (stereo not shown) [Example 88, N-isopropyl-2-methyl-4-(5-(5-((4-methylpiperazin-1-yl)methyl)thiophen-2-yl)-1H-pyrrolo[2,3-b]pyridin-3-yl)-5,6-dihydropyridine-1(2H)-carboxamide]
[1]
  IC50: 0.0032 µM
[2]
  IC50: 0.0008 µM

## CS(=O)(=O)c1cccc(-c2cnc3[nH]cc(C4=CCN(C(=O)NC5CCCC5)CC4)c3c2)c1 [Example 52, N-cyclopentyl-4-(5-(3-(methylsulfonyl)phenyl)-1H-pyrrolo[2,3-b]pyridin-3-yl)-5,6-dihydropyridine-1(2H)-carboxamide]
[1]
  IC50: 0.048 µM
[2]
  IC50: 0.023 µM

## O=C(NC1CCCC1)N1CC=C(c2c[nH]c3ncc(-c4ccc(S(=O)(=O)C5CC5)cc4)cc23)CC1 [Example 56, N-cyclopentyl-4-(5-(4-(cyclopropylsulfonyl)phenyl)-1H-pyrrolo[2,3-b]pyridin-3-yl)-5,6-dihydropyridine-1(2H)-carboxamide]
[1]
  IC50: 0.19 µM
[2]
  IC50: 0.058 µM

## CC1CN(C(=O)NC2CCCC2)CC=C1c1c[nH]c2ncc(-c3ccc(CN4CCN(C)CC4)s3)cc12 (stereo not shown) [Example 126, N-cyclopentyl-5-methyl-4-(5-(5-((4-methylpiperazin-1-yl)methyl)thiophen-2-yl)-1H-pyrrolo[2,3-b]pyridin-3-yl)-5,6-dihydropyridine-1(2H)-carboxamide]
[1]
  IC50: 0.033 µM
[2]
  IC50: 0.015 µM

## CCCN1CC=C(c2c[nH]c3ncc(-c4ccc(OC)c(OC)c4)cc23)CC1 [Example 4, 5-(3,4-Dimethoxyphenyl)-3-(1-propyl-1,2,3,6-tetrahydropyridin-4-yl)-1H-pyrrolo[2,3-b]pyridine]
[1]
  IC50: 5.14 µM
[2]
  IC50: 3.23 µM

## CCC1CC(c2c[nH]c3ncc(-c4ccc(CN5CCOCC5)s4)cc23)=CCN1C(=O)NC(C)C (stereo not shown) [Example 110, 6-Ethyl-N-isopropyl-4-(5-(5-(morpholinomethyl)thiophen-2-yl)-1H-pyrrolo[2,3-b]pyridin-3-yl)-5,6-dihydropyridine-1(2H)-carboxamide]
[1]
  IC50: 0.043 µM
[2]
  IC50: 0.031 µM

## CC1C=C(c2c[nH]c3ncc(-c4ccc(CN5CCOCC5)s4)cc23)CCN1C(=O)NC1CCC1 (stereo not shown) [Example 101, N-cyclobutyl-2-methyl-4-(5-(5-(morpholinomethyl)thiophen-2-yl)-1H-pyrrolo[2,3-b]pyridin-3-yl)-5,6-dihydropyridine-1(2H)-carboxamide]
[1]
  IC50: 0.029 µM
[2]
  IC50: 0.01 µM

## CC(C)NC(=O)N1C(C)C=C(c2c[nH]c3ncc(-c4ccc(CN5CCOCC5)s4)cc23)CC1C (stereo not shown) [Example 115, N-isopropyl-2,6-dimethyl-4-(5-(5-(morpholinomethyl)thiophen-2-yl)-1H-pyrrolo[2,3-b]pyridin-3-yl)-3,6-dihydropyridine-1(2H)-carboxamide]
[1]
  IC50: 0.43 µM
[2]
  IC50: 0.36 µM

## O=C(c1ccc(-c2cnc3[nH]cc(C4=CCN(C(=O)c5cccs5)CC4)c3c2)cc1)N1CCOCC1 [Example 209, (4-(5-(4-(morpholine-4-carbonyl)phenyl)-1H-pyrrolo[2,3-b]pyridin-3-yl)-5,6-dihydropyridin-1(2H)-yl)(thiophen-2-yl)methanone]
[1]
  IC50: 0.14 µM
[2]
  IC50: 0.007 µM

## CC1C=C(c2c[nH]c3ncc(-c4ccc(CN5CCOCC5)s4)cc23)CCN1C(=O)NC1CC1 (stereo not shown) [Example 97, N-cyclopropyl-2-methyl-4-(5-(5-(morpholinomethyl)thiophen-2-yl)-1H-pyrrolo[2,3-b]pyridin-3-yl)-5,6-dihydropyridine-1(2H)-carboxamide]
[1]
  IC50: 0.0025 µM
[2]
  IC50: 0.0017 µM

## CC1CN(C(=O)NC2CCCC2)CC=C1c1c[nH]c2ncc(-c3ccc(S(C)(=O)=O)cc3)cc12 (stereo not shown) [Example 121, N-cyclopentyl-5-methyl-4-(5-(4-(methylsulfonyl)phenyl)-1H-pyrrolo[2,3-b]pyridin-3-yl)-5,6-dihydropyridine-1(2H)-carboxamide]
[1]
  IC50: 0.33 µM
[2]
  IC50: 0.097 µM

## CCN1CCN(Cc2ccc(-c3cnc4[nH]cc(C5=CCN(C(=O)NC(C)C)CC5)c4c3)s2)CC1 [Example 26, 4-(5-(5-((4-Ethylpiperazin-1-yl)methyl)thiophen-2-yl)-1H-pyrrolo[2,3-b]pyridin-3-yl)-N-isopropyl-3,6-dihydropyridine-1(2H)-carboxamide]
[1]
  IC50: 0.025 µM
[2]
  IC50: 0.0077 µM

## CC(C)NC(=O)N1CCC(c2c[nH]c3ncc(-c4ccc(CN5CCN(C)CC5)cc4)cc23)=CC1C (stereo not shown) [Example 86, N-isopropyl-2-methyl-4-(5-(4-((4-methylpiperazin-1-yl)methyl)phenyl)-1H-pyrrolo[2,3-b]pyridin-3-yl)-5,6-dihydropyridine-1(2H)-carboxamide]
[1]
  IC50: 0.0035 µM
[2]
  IC50: 0.0028 µM

## COc1ccc(-c2cnc3[nH]cc(C4=CCN(CC(C)C)CC4)c3c2)cc1OC [Example 5, 5-(3,4-Dimethoxyphenyl)-3-(1-isobutyl-1,2,3,6-tetrahydropyridin-4-yl)-1H-pyrrolo[2,3-b]pyridine]
[1]
  IC50: 2.75 µM
[2]
  IC50: 1.56 µM

## O=C(c1cccs1)N1CC=C(c2c[nH]c3ncc(Nc4ccc(CN5CCOCC5)cc4)cc23)CC1 [Example 250, (4-(5-(4-(morpholinomethyl)phenylamino)-1H-pyrrolo[2,3-b]pyridin-3-yl)-5,6-dihydropyridin-1(2H)-yl)(thiophen-2-yl)methanone]
[1]
  IC50: 0.84 µM
[2]
  IC50: 0.17 µM

## CC(=O)Nc1ccc(-c2cnc3[nH]cc(C4=CCN(C(=O)NC(C)C)CC4)c3c2)cc1 [Example 17, 4-(5-(4-Acetamidophenyl)-1H-pyrrolo[2,3-b]pyridin-3-yl)-N-isopropyl-3,6-dihydropyridine-1(2H)-carboxamide]
[1]
  IC50: 0.021 µM
[2]
  IC50: 0.0078 µM

## CCC(CC)NC(=O)N1CC=C(c2c[nH]c3ncc(-c4ccc(CN5CCN(C)CC5)s4)cc23)CC1 [Example 41, 4-(5-(5-((4-Methylpiperazin-1-yl)methyl)thiophen-2-yl)-1H-pyrrolo[2,3-b]pyridin-3-yl)-N-(pentan-3-yl)-3,6-dihydropyridine-1(2H)-carboxamide]
[1]
  IC50: 0.22 µM
[2]
  IC50: 0.047 µM

## COc1ccc(-c2cnc3[nH]cc(C4=CCN(C(=O)NC5CCCC5)CC4)c3c2)cc1S(=O)(=O)N1CCOCC1 [Example 63, N-cyclopentyl-4-(5-(4-methoxy-3-(morpholinosulfonyl)phenyl)-1H-pyrrolo[2,3-b]pyridin-3-yl)-5,6-dihydropyridine-1(2H)-carboxamide]
[1]
  IC50: 0.44 µM
[2]
  IC50: 0.029 µM
